Reference: US8703098B2, “Labelled adrenomedullin derivatives and their use for imaging and therapy” (Institut de Cardiologie de Montreal, priority 2004, dated 2014)
Ends that are not written are not given here.

Legend:
[1] = Plasma kinetics of 125I-rAM(1-50) after single intravenous injection in rats; format: in vivo, rat; details: drug given 5 min before the 125I-rAM(1-50) bolus
Protocol: (§1) All experimental procedures were performed in accordance with the regulations and ethical guidelines from Canadian Council for the Care of Laboratory Animals, and received approval by the Animal Ethics and Research Committee of the Montreal Heart Institute. Male Sprague-Dawley rats (Charles River), weighing between 400-450 g, were anaesthetized by an initial intramuscular dose of xylazine (10 mg/kg of body weight) and ketamine (50 mg/kg of body weight), followed by an intra-peritoneal injection of heparin (2000 units; Sigma). Catheters were inserted into the right carotid artery and jugular vein. Heart rate and systemic blood pressure were monitored continuously. […] Venous and arterial blood samples (3 ml) were collected and centrifuged (1875 g, 15 min, 4° C.) and the plasma saved for subsequent measurement of irAM (immunoreactive AM). A similar amount of saline was infused into the animals to prevent hypovolaemia.
The animals were then killed and the lungs, liver, kidneys (en bloc with the adrenal glands) and heart were removed and gravity drained. […] Results are expressed as a percentage of total radioactivity injected. […]
Multiple group comparisons were performed by factorial ANOVA, followed, when a significant interaction was found, by the Bonferroni/Dunn t test. […] In the canine experiments, the effect of drugs on AM extraction was analyzed by two-tailed paired Student's t tests. […]

[2] = Biodistribution and pulmonary retention of 125I-rAM(1-50) in rats after intravenous or intra-arterial injection; format: in vivo, rat; details: drug given 5 min before tracer
Protocol: as §1
The animals were then killed and the lungs, liver, kidneys (en bloc with the adrenal glands) and heart were removed and gravity drained. […] Results are expressed as a percentage of total radioactivity injected.
The drugs were given by either intraarterial (n=10 in each group) or intravenous (n=10 in each group) injection 5 min before the ^125I-rAM(1-50) bolus. Plasma samples and tissues were treated as described above.
(§2) Multiple group comparisons were performed by factorial ANOVA, followed, when a significant interaction was found, by the Bonferroni/Dunn t test. Plasma kinetics of 125I-rAM(1-50) was fitted using a two-phase exponential decay equation with GraphPad Prism (version 4.0) software. […] Comparison between venous and arterial rAM(1-50) levels in plasma was performed with a two-tailed paired Student's t test. In the canine experiments, the effect of drugs on AM extraction was analyzed by two-tailed paired Student's t tests. A P value of <0.05 was considered significant. All results are reported as means ±S.E.M.

[3] = In vivo single-pass pulmonary clearance of 125I-rAM(1-50) in dogs, single bolus indicator-dilution technique; set-up: species or system dog; details: for mean single-pass pulmonary extraction of 125I-rAM(1-50) after administration of the drug: dogs, drug as intravenous bolus of 100 nmol 5 min before second experiment, mean ±S.E.M.
Protocol: Dogs were anaesthetized and prepared as described in detail in reference, which is hereby incorporated by reference. A catheter was inserted into the carotid artery and positioned just above the aortic valve. This catheter was connected to a peristaltic pump for automated blood withdrawal. Another catheter was placed into the jugular vein and positioned in the right ventricular outflow tract to allow bolus injection of the study tracers. A bolus was prepared by adding 3.3 μCi of 125I-rAM(1-50) (2.9 pmol) to 3 ml of Evans-Blue-dye labelled albumin and 0.9% saline to give a final volume of 6 ml. The mixture was separated into three equal parts for the two successive experiments in each animal and to realize dilution-curve standards. A baseline single-bolus indicator-dilution experiment was performed.
The collected samples were processed and indicator-dilution curves constructed and analyzed as described in previously cited reference 13. Cardiac output and mean tracer AM extraction during the pulmonary transit time were computed from the curves. Mean tracer extraction corresponded to the difference between the areas of the outflow curve of the vascular reference (albumin) and that of the extracted tracer (AM). Recirculation of the tracers apparent in the terminal portion of the curves was removed by linear extrapolation of the semi-logarithmic down slopes.
as §2

[4] = dog, in vivo, iv
Protocol: All experimental procedures were performed in accordance with regulations and ethical guidelines from Canadian Council for the Care of Laboratory Animals, and received approval by the animal ethics and research committee of the Montreal Heart Institute. Mongrel dogs weighing between 20-30 kg and presenting negative Dirofilaria imitis blood test results were anesthetized by an initial intravenous dose of pentobarbital sodium (50 mg/kg). Animals were intubated and mechanically ventilated using room air. Cutaneous electrocardiographic leads were installed, and 18F cathlon with three-way was installed on both saphenous vein for 0.9% sodium chloride perfusion, radiolabelled injection and blood collection. A right arterial femoral catheter was also inserted using the Seldinger technique for continuous blood pressure monitoring.
Purified and buffered ^99mTc-DTPA-hAM1-52 samples were injected in right saphenous vein (n=6). A series of 2 mL blood samples were collected 1 min after the initial AM injection for a 10-min period, then repeated every 5 min for the following 50-min period. […]
Plasma kinetics of ^99mTc-DTPA-hAM1-52 was fitted using a two-phase exponential decay equation with GraphPad Prism version 4.0 software. Time effects on each organ biodistribution were analyzed by two-way repeated measures ANOVA followed, when a significant interaction was found, by Bonferroni/Dunn t-test. […]

Compound | effect of administration prior to radiolabelled rAM(1-50) on its plasma kinetics [1] | effect of prior administration on 125I-rAM(1-50) lung activity [2] | effect of prior administration on amount of 125I-rAM(1-50) retained by the liver, kidneys and heart [2] | effect of prior administration on pulmonary first-pass retention of 125I-rAM(1-50) (intra-arterial compared with intravenous) [2] | mean single-pass pulmonary extraction of 125I-rAM(1-50) after administration of the drug [3] [%] | mean extraction of 125I-rAM(1-50) after injection of the drug, typical experiment ([3]; same dog, second experiment (FIG. 4B)) [%] | ratio of rate constant for exchange between the central and peripheral compartments (k1-2/k2-1) [4] | effect of prior administration on 125I-rAM(1-50) activity retained in kidneys [2] | effect of prior administration on biodistribution of 125I-rAM(1-50) [2]
rAM(1-50): unlabelled rat adrenomedullin, amino acids 1-50 (American Peptide) (YRQSMNQGSRSTGCRFGTCTMQKLAHQIYQFTDKDKDGMAPRNKISPQGY; ends and bridges not checked; cysteine pairing not given here) | did not modify plasma kinetics | important reduction in lung activity | significantly increased | did not decrease further the already lowered pulmonary retention after intra-arterial compared with intravenous injections | 21.9±2.4 | 12 | – | – | –
CC[C@H](C)[C@H](NC(=O)[C@H](CCC(N)=O)NC(=O)[C@H](Cc1c[nH]cn1)NC(=O)[C@H](C)NC(=O)[C@H](CC(C)C)NC(=O)[C@H](CCCCN)NC(=O)[C@H](CCC(N)=O)NC(=O)[C@@H](NC(=O)[C@@H](NC(=O)[C@@H]1CSSC[C@H](NC(=O)CNC(=O)[C@H](Cc2ccccc2)NC(=O)[C@H](CO)NC(=O)[C@H](CCCNC(=N)N)NC(=O)[C@H](CC(C)C)NC(=O)CNC(=O)[C@H](CCC(N)=O)NC(=O)[C@H](Cc2ccccc2)NC(=O)[C@H](CC(N)=O)NC(=O)[C@H](CC(N)=O)NC(=O)[C@H](CCSC)NC(=O)[C@H](CO)NC(=O)[C@H](CCC(N)=O)NC(=O)[C@H](CCCNC(=N)N)NC(=O)[C@H](Cc2ccc(O)cc2)NC(=O)CN(CCN(CCN(CC(=O)O)CC(=O)O)CC(=O)O)CC(=O)O)C(=O)N[C@@H](CCCNC(=N)N)C(=O)N[C@@H](Cc2ccccc2)C(=O)NCC(=O)N[C@@H]([C@@H](C)O)C(=O)N1)[C@@H](C)O)C(C)C)C(=O)N[C@@H](Cc1ccc(O)cc1)C(=O)N[C@@H](CCC(N)=O)C(=O)N[C@@H](Cc1ccccc1)C(=O)N[C@H](C(=O)N[C@@H](CC(=O)O)C(=O)N[C@@H](CCCCN)C(=O)N[C@@H](CC(=O)O)C(=O)N[C@@H](CCCCN)C(=O)N[C@@H](CC(=O)O)C(=O)N[C@@H](CC(N)=O)C(=O)N[C@H](C(=O)N[C@@H](C)C(=O)N1CCC[C@H]1C(=O)N[C@@H](CCCNC(=N)N)C(=O)N[C@@H](CO)C(=O)N[C@@H](CCCCN)C(=O)N[C@H](C(=O)N[C@@H](CO)C(=O)N1CCC[C@H]1C(=O)N[C@@H](CCC(N)=O)C(=O)NCC(=O)N[C@@H](Cc1ccc(O)cc1)C(N)=O)[C@@H](C)CC)C(C)C)[C@@H](C)O [99mTc-DTPA-hAM1-52, metal not drawn] | – | – | – | – | – | – | 24.09 | – | –
hAM(22-52): C-terminal AM fragment that blocks the specific AM receptor (Bachem) | did not modify plasma kinetics | – | – | not affected | 31.4±3.3 | – | – | elevated the retained activity | did not significantly modify this distribution
